Source: patent US6444644B1, “Anticoagulant peptide fragments derived from apolipoprotein B-100” (University College London, priority 1996, dated 2002)
No end group written: not given here.

What was measured:
Assay type in all cases: biochemical
thromboplastin = target: T1, thromboplastin (Homo sapiens, UniProt P13726); test: Effect of KRAD-14 concentration on thromboplastin inhibition (one-stage prothrombin time assay)
T1 construct: purchased Gamidor Ltd. (Oxfordshire, U.K.)
Method: The synthetic KRAD-14 peptide was reconstituted in distilled water at 1 mM. Aliquots of recombinant thromboplastin were incubated, at 37° C. with a KRAD-14 at concentration range 10-5000 nM (final concentration) for 1 min prior to assaying using the one-stage prothrombin time assay. In addition, samples of thromboplastin (10 U/ml) were incubated with synthetic KRAD-14 at concentrations ranging from 1-100 μM (final concentration) prior to assaying using the one-stage prothrombin time assay.
Aliquots of recombinant thromboplastin were incubated, at 37° C. with a KRAD-14 at concentration range 10-5000 nM (final concentration) for 1 min prior to assaying using the one-stage prothrombin time assay. The percentage inhibition was calculated as 100×([…])/Initial activity. The experiment was performed in triplicate.
Samples of thromboplastin (10 U/ml) were incubated with synthetic KRAD-14 concentration ranging 1-100 μM (final concentration) prior to assaying using the one-stage prothrombin time assay. The percentage inhibition was calculated as 100×([…])/Initial activity. The experiment was performed in triplicate.
Aliquots (1 ml) of recombinant thromboplastin (100 nM) were incubated at 37° C. with a KRAD-14 peptide at concentration range 50 (♦), 100 (▾), 200 (▪), 300 (⋄) and 500 nM (□) (final concentration). 100 μl of the each sample was removed immediately and assayed for thromboplastin activity, by means of the one-stage prothrombin time assay. The rest of the samples were incubated at 37° C. and further 100 μl samples were removed at intervals up to 40 min and measured. The percentage inhibition was calculated as 100×(Initial activity-Residual activity)/Initial activity. The data were obtained from 3 separate experiments.

[1] = test system: factor VII/thromboplastin; test: Effect on activation and activity of factor VII (clotting in factor VII deficient plasma)
Method: In order to assess whether the action of KRAD-14 peptide was directed to the proteolytic activity of factor VIIa/thromboplastin or the activation of factor VII by interaction with thromboplastin, first thromboplastin (200 nM) and factor VII (200 nM) were incubated for 10 min in the presence of 25 mM CaCl2, prior to addition of KRAD-14 peptide and a further 10 min incubation. The samples were then assayed by addition to factor VII deficient plasma and measuring the clotting time. Appropriate controls devoid of KRAD-14 peptide were included in each experiment.
In order to assess whether the action of KRAD-14 peptide was directed to the proteolytic activity of factor VIIa/thromboplastin or the activation of factor VII by interaction with thromboplastin, first thromboplastin (200 nM) and factor VII (200 nM) were incubated for 10 min in the presence of 25 mM CaCl2, prior to addition of […] (500 nM) and a further 10 min incubation. In the second experiment thromboplastin, factor VII and factor Xa (100 nM) were pre-incubated for 10 min in the presence of 25 mM CaCl2, prior to addition of KRAD-14 peptide and a further 10 min incubation. The samples were then assayed by addition to factor VII deficient plasma and measuring the clotting time. […] Conversely, it was able to inhibit the activation of the pro-enzyme (inhibition=74%+8) (Table 2). […]

factor Xa = factor Xa (Homo sapiens, UniProt P00742); test: Influence on factor Xa activity (amidolytic and clotting in factor Xa-deficient plasma)
factor Xa, sequence (P00742 235-488 limits assumed): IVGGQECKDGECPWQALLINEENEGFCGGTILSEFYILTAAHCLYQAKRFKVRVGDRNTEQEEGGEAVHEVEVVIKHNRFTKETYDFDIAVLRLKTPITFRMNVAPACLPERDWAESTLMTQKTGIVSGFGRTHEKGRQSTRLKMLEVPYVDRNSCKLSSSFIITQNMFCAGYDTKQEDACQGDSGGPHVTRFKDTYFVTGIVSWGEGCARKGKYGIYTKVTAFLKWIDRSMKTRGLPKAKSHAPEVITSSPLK
factor Xa, sequence (P00742 41-179 limits assumed): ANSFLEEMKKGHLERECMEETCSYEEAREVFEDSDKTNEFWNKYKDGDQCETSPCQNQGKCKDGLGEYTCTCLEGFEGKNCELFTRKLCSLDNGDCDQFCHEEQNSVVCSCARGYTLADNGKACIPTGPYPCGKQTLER
Method: Samples (1 ml) of either KRAD-14 peptide (500 nM) or the control peptide 500 nM) were incubated with pre-activated factor Xa (100 nM) at 37° C. and the factor Xa activity measured at the beginning and at intervals up to 60 min as follows. The enzymatic activity of factor Xa was measured by the addition of 100 μl aliquots to 0.45 ml of thrombin substrate (N-benzoyl-ile-glu-gly-arg-p-nitroanilide) (0.26 mM) which was then incubated at 37° C. for exactly 10 min, before the addition of 0.45 ml of 20% (w/v) acetic acid. The absorption was measured at 405 nm against a factor Xa (100 nM) control assayed similarly. The procoagulant activity of factor Xa was measured by the addition of 100 μl of the sample to factor Xa-deficient plasma (100 μl) and […] CACl2 solution and measuring the clotting time. A factor Xa (100 nM) control was included in the assay against which comparisons were made.
Three 1 ml samples containing recombinant KRAD-14 peptide (20 (♦), 40 (▾) and 80 (▪) nM) were mixed with factor Xa (100 nM). […] The rest of the samples were incubated at 37° C. and further 100 μl samples were removed at intervals up to 40 min and measured as before. The activity was measured against a standard curve and the percentage inhibition calculated against the initial factor Xa activity. […]

factor V = test: Influence on factor V procoagulant activity (factor V-deficient plasma); settings: factor V 1 μM, 37° C., preactivated factor V deficient plasma; read-out: Kdapp, inhibition of coagulation upon pre-incubation with factor V
Method: Samples (1 ml) of either KRAD-14 peptide (500 nM) or the control peptide (500 nM) were incubated with pre-activated factor V (100 nM) at 37° C. and the factor V activity measured at the beginning and at intervals up to 60 min as follows. The procoagulant activity of factor V was measured by the addition of 100 μl of the sample to factor V-deficient plasma (100 μl) pre-activated by incubation (2 min) with thromboplastin (200 nM) in the presence of CACl2 (25 mM), and measuring the clotting time. The activity was measured against a standard curve and the percentage inhibition calculated against the initial factor V activity. The curves are typical of data from three separate experiments.
Three 1 ml samples containing recombinant KRAD-14 peptide (20 (♦) 40 (▾) and 80 (▪) nM) were mixed with factor V (1 μM). 100 μl of the each sample was removed immediately and assayed for […] by addition to factor V-deficient plasma, pre-activated by incubation (2 min) with thromboplastin (200 nM) in the presence of CaCl2 (25 mM), and measuring the clotting time. The rest of the samples were incubated at 37° C. and further 100 μl samples were removed at intervals up to 40 min and measured as before. The activity was measured against a standard curve and the percentage inhibition calculated against the initial factor V activity. The curves are typical of data from 3 separate experiments.

T1 sequence (P13726 33-295): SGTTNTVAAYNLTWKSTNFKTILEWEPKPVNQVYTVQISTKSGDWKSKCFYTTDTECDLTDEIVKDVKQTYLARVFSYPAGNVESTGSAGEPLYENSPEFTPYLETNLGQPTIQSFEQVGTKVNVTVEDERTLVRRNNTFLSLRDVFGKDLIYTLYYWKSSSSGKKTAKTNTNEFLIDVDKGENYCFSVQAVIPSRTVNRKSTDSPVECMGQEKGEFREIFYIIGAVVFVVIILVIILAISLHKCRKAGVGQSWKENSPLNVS

lowest concentration effective in inhibiting thromboplastin (thromboplastin; 1 min preincubation at 37° C.): 50 nM
Kd (thromboplastin; thromboplastin 100 nM, KRAD-14 peptide 1-5000 nM, 1 min at 37° C., read-out: Kdapp, inhibition of thromboplastin): 37 nM
inhibition of the activation of the pro-enzyme (factor VII) ([1]; thromboplastin 200 nM, factor VII 200 nM, 25 mM CaCl2, peptide 500 nM, 10 min): 74%
effect on the amidolytic activity of factor Xa (factor Xa; 500 nM peptide): did not affect
Kd (factor Xa; factor Xa 100 nM, 37° C., factor Xa deficient plasma, read-out: Kdapp, inhibition of coagulation upon pre-incubation with factor Xa): 275 nM
Kd (factor V): 285 nM
Sequence: KAQSKKNKHRHSTT [KRAD-14]
inhibition of thromboplastin compared with the recombinant peptide (in words) (thromboplastin; synthetic peptide): inhibitory towards thromboplastin with similar effectiveness as the recombinant peptide
inhibition of the activity of factor VIIa ([1]; peptide 500 nM added after pre-incubation, further 10 min, factor VII deficient plasma): 12%
